Patent US20210069083A1, “METHOD FOR IMPROVING SKIN WHITENING POWER OF A SKIN WHITENING AGENT” (Symrise AG, priority 2013, published 2021)

Tested on: B16V mouse melanoma cells
Assay: Depigmentation effect on melanoma cell cultures (inhibition of pigmentation / melanin inhibition)
Format: cell-based
Conditions: for IC50: Mus musculus, B16V cells, 0.3 mM tyrosine and 10 nM α-MSH, 96 h incubation, absorption at 400 nm
Procedure: B16V mouse melanoma cells are disseminated in a 96-well micro-titre plate in a concentration of 7.5×10^3 cells/well. After cultivation for 24 h at 37° C. and 5% CO2 in RPMI medium, enriched with 10% foetal calf serum, various concentrations of the test substances and 0.3 mM tyrosine and 10 nM α-MSH (α-melanocyte stimulating hormone) are added and incubated for a further 96 h. The maximum concentration of the test substances used corresponds to 0.1 times the value of the IC20 value of the cytotoxicity assay. Only tyrosine and α-MSH are added to the controls. After incubation, sodium hydroxide solution (final concentrations: 1 M) is added to the culture medium and the absorption (A) is measured after 3 h at 400 nm.
The inhibition of pigmentation in the presence of the test compounds was calculated using the following equation:
Inhibition of pigmentation (%)=100−[(Atest compound/Acontrol)×100]
wherein Atest compound=absorption of the wells with test substance and with cells Acontrol=absorption of the wells without test substance, but with cells
From the inhibition of pigmentation (%) in a series of dilutions of test compounds, the IC50 for each test compound is calculated. This is the concentration of a test compound at which pigmentation is inhibited by 50%. The results are compiled in Table 1:
Experimental procedure as described in Example 1. SymWhite® 377 stands for Phenylethyl resorcinol.
The Synergy Index (SI)^1 is calculated according to Kull's equation as follows: […]
with A: individual result of substance A B: individual result of substance B C: result of the mixture of A and B D: percentage of substance Ain the mixture E: percentage of substance B in the mixture ^1 The calculation of the synergy index (SI-value) was carried out on the basis of following literature: D. C. Steinberg, Cosmetics & Toiletries 2000, 115 (11), 59-62 and F. C. Kull et al., Applied Microbiology 1961, 9, 538-541.
In contrast to the given examples in the literature, in which reduced values for A, B and C (i.e. the minimal concentration of inhibition in antimicrobial tests) mean better activity and consequently SI values <1 document a synergistic effect, increasing values of the here analysed melanin inhibition mean better efficacy. According to Kull's equation the evidence for a synergistic effect results for SI values >1. In the experiments with Sclareolide and SyrnWhite® 377 the calculated SI values obviously exceed 1 (experiments 1 and 2). From this it follows that a composition of Sclareolide and SymWhite® 377 constitutes a potent synergistic combination of active ingredients.

Row | SMILES | IC50 [µM] | Melanin inhibition (Ex. 1, Kull variable A, conc. 3.2 μm) [%] | Melanin inhibition (Ex. 2, Kull variable A, conc. 3.2 μm) [%] | Melanin inhibition (Ex. 1, Kull variable B, conc. 1.6 μm) [%] | Melanin inhibition (Ex. 2, Kull variable B, conc. 1.6 μm) [%]
1 | OC[C@H]1O[C@@H](Oc2ccc(O)cc2)[C@H](O)[C@@H](O)[C@@H]1O [beta-Arbutin] | 67 |  |  |  | 
2 | O=c1cc(CO)occ1O [Kojic acid, 5-hydroxy-2-hydroxymethyl-4-pyranone] | 452 |  |  |  | 
3 | CC1(C)CCC[C@]2(C)C3CC(=O)O[C@]3(C)CC[C@@H]12 (stereo partly drawn) [Sclareolide, (3aR,5aS,9aS,9bR)-decahydro-3a,6,6,9a-tetramethyl-naphtha[2,1-b]furan-2(1H)-one] | 10.2 | 50.0 | 35.8 |  | 
4 | CC(c1ccccc1)c1ccc(O)cc1O (stereo not shown) [SymWhite ® 377, 4-(1-phenylethyl)1,3-dihydroxybenzene] |  |  |  | 59.8 | 55.9
